# In ChEMBL document CHEMBL3352183, “Borrelidin B: isolation, biological activity, and implications for nitrile biosynthesis” (J Nat Prod, 2014):
# Activity calls are given as the source filed them. The rule behind the calls is not given here.
# Assays:
# [1] = test system: NCI-N87; experiment: Growth inhibition of human NCI-N87 cells; type: functional, cell-based
# [2] = test system: MDA-MB-361; experiment: Growth inhibition of human MDA-MB-361 cells; type: functional, cell-based
# [3] = test system: HT-29; experiment: Growth inhibition of human HT-29 cells; type: functional, cell-based
# [4] = test system: HeLa; experiment: Mitotic arrest in human HeLa cells assessed as accumulation at […] at 0.98 to 30 uM using pHH3 staining-based fluorescent assay; type: functional, cell-based
# [5] = target: T1, Threonine--tRNA ligase, mitochondrial (Homo sapiens) (UniProt Q9BW92); experiment: Inhibition of threonyl tRNA synthetase (unknown origin) assessed as depletion of tRNAs at 50 uM by SToPs assay
# T1 sequence (whole entry): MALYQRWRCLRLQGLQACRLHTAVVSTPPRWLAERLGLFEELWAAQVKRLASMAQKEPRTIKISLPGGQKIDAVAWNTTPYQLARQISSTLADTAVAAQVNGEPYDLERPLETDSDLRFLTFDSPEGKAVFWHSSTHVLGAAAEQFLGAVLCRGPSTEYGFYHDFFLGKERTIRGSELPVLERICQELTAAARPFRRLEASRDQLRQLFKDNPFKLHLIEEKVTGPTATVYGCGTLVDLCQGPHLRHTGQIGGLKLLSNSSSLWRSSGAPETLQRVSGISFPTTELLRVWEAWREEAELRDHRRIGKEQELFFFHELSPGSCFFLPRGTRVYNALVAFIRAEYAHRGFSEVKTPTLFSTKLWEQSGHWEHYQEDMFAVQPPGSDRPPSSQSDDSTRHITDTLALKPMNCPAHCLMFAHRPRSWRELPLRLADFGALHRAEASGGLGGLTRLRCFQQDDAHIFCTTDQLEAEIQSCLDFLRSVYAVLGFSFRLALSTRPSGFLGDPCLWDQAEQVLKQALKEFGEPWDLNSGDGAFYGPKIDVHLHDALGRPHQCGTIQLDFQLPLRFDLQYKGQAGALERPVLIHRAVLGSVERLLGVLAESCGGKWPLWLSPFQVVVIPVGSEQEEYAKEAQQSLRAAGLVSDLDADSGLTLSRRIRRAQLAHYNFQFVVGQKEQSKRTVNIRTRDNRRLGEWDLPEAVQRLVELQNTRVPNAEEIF
SMILES,IC50 [1],IC50 [2],IC50 [3],Activity [4],inhibition [5]
C[C@@H]1C[C@H](C)C[C@H](C)[C@@H](O)CC(=O)O[C@H]([C@@H]2CCC[C@H]2C(=O)O)C/C=C/C=C(/CN)[C@H](O)[C@@H](C)C1,1.3 µM,2.2 µM,2 µM,Dose-dependent effect,Active
CC(=O)NC/C1=C/C=C/C[C@@H]([C@@H]2CCC[C@H]2C(=O)O)OC(=O)C[C@H](O)[C@@H](C)C[C@@H](C)C[C@@H](C)C[C@H](C)[C@H]1O,,,,inactive,inactive
C[C@@H]1C[C@H](C)C[C@H](C)[C@@H](O)CC(=O)O[C@H]([C@@H]2CCC[C@H]2C(=O)O)C/C=C/C=C(/C#N)[C@H](O)[C@@H](C)C1 [BORRELIDIN],0.05 µM,0.42 µM,0.92 µM,,
